Measurements published in paper PMC2621068 (Neuropeptides, 2008).

Legend:
[1] = tested on: Kuming mice; type: in vivo, mouse; settings: n = 8
[2] = tested on: Kuming mice; settings: mouse, in vivo
[3] = tested on: female Kuming mice; settings: mouse, in vivo

CC(C(O)c1ccc(O)cc1)N1CCC(Cc2ccccc2)CC1 (centres unmarked) [ifenprodil, reference compound]
first phase response of the formalin test (in words) [1]: without effect in both phases
second phase response of the formalin test (in words) [1]: without effect in both phases
Increase in paw width [2]: 1.10 ± 0.05 mm
Injected paw width, after formalin injection [2]: 2.70 ± 0.04 mm
Injected paw width, before formalin injection [2]: 1.59 ± 0.04 mm
Paw withdrawal latency after administration, 30 min [3]: 11.1 ± 3.7 s
Paw withdrawal latency after administration, 90 min [3]: 11.1 ± 4.6 s
Paw withdrawal latency after administration, 150 min [3]: 11.2 ± 3.0 s
Paw withdrawal latency after administration, 240 min [3]: 12.8 ± 3.0 s
Paw withdrawal latency before administration [3]: 10.8 ± 2.4 s
antinociception in the hot-plate test (in words) [3]: had no effect
